{
  "source": "ChEMBL document CHEMBL1139817",
  "about": "“Synthesis and anti-inflammatory activity of 3-(4'-geranyloxy-3'-methoxyphenyl)-2-trans propenoic acid and its ester derivatives” (2007)",
  "data": [
    {"tested_on": "Mus musculus", "experiment": "Antiinflammatory activity in CD1 mouse assessed as inhibition of croton oil-induced ear oedema at 0.3 umol/cm^2 after 6 hrs", "assay_type": "functional", "parameters": "scale not given: the % may be the effect or the level left", "units": {"Activity": "%"}, "values": [
      {"smiles": "O=C1c2ccc(O)cc2C(=O)c2ccc(O)cc21", "note": "[ANTHRAFLAVICACID]", "Activity": 22},
      {"smiles": "COc1cc(/C=C/C(=O)OC2=CC(=O)c3ccccc3C2=O)ccc1OC/C=C(\\C)CCC=C(C)C", "Activity": 43},
      {"smiles": "COc1cc(/C=C/C(=O)O)ccc1OC/C=C(\\C)CCC=C(C)C", "Activity": 41},
      {"smiles": "O=C1C=C(O)C(=O)c2ccccc21", "note": "[LAWSONE]", "Activity": 23},
      {"smiles": "COc1cc(/C=C/C(=O)Oc2ccc3c(c2)C(=O)c2ccc(OC(=O)/C=C/c4ccc(OC/C=C(\\C)CCC=C(C)C)c(OC)c4)cc2C3=O)ccc1OC/C=C(\\C)CCC=C(C)C", "Activity": 43},
      {"smiles": "COc1cc(C(=O)O)ccc1O", "note": "[VANILLIC ACID]", "Activity": 20},
      {"smiles": "COc1cc(/C=C/C(=O)Oc2ccccc2OC)ccc1OC/C=C(\\C)CCC=C(C)C", "Activity": 49},
      {"smiles": "O=C1C[C@@H](c2ccc(O)cc2)Oc2cc(O)cc(O)c21", "note": "[NARINGENIN]", "Activity": 43},
      {"smiles": "COc1cc(/C=C/C(=O)Oc2ccc3ccc(=O)oc3c2)ccc1OC/C=C(\\C)CCC=C(C)C", "Activity": 38},
      {"smiles": "Oc1ccc(O)cc1", "note": "[HYDROQUINONE]", "Activity": 4},
      {"smiles": "COc1cc(/C=C/C(=O)O)ccc1O", "note": "[FERULATE]", "Activity": 16},
      {"smiles": "O=C(O)/C=C/c1ccc(O)c(O)c1", "note": "[CAFFEIC ACID]", "Activity": 6},
      {"smiles": "COC(=O)/C=C/c1ccc(OC(=O)/C=C/c2ccc(OC/C=C(\\C)CCC=C(C)C)c(OC)c2)c(OC(=O)/C=C/c2ccc(OC/C=C(\\C)CCC=C(C)C)c(OC)c2)c1", "Activity": 38},
      {"smiles": "COc1ccccc1O", "note": "[GUAIACOL]", "Activity": 10},
      {"smiles": "O=c1ccc2ccc(O)cc2o1", "note": "[UMBELLIFERONE]", "Activity": 23},
      {"smiles": "COc1ccc2c(c1)c(CC(=O)O)c(C)n2C(=O)c1ccc(Cl)cc1", "note": "[INDOMETHACIN]", "Activity": 62},
      {"smiles": "CC(=O)Nc1ccc(O)cc1", "note": "[ACETAMINOPHEN]", "Activity": 13},
      {"smiles": "COC(=O)c1ccc(OC(=O)/C=C/c2ccc(OC/C=C(\\C)CCC=C(C)C)c(OC)c2)c(OC)c1", "Activity": 29},
      {"smiles": "COc1cc(/C=C/C(=O)Oc2ccc(NC(C)=O)cc2)ccc1OC/C=C(\\C)CCC=C(C)C", "Activity": 51},
      {"smiles": "COc1cc(/C=C/C(=O)Oc2ccc(OC(=O)/C=C/c3ccc(OC/C=C(\\C)CCC=C(C)C)c(OC)c3)cc2)ccc1OC/C=C(\\C)CCC=C(C)C", "Activity": 57},
      {"smiles": "O=C(O)c1ccccc1O", "note": "[SALICYLIC ACID]", "Activity": 13},
      {"smiles": "COC(=O)c1ccccc1OC(=O)/C=C/c1ccc(OC/C=C(\\C)CCC=C(C)C)c(OC)c1", "Activity": 42},
      {"smiles": "COC(=O)/C=C/c1ccc(OC(=O)/C=C/c2ccc(OC/C=C(\\C)CCC=C(C)C)c(OC)c2)c(OC)c1", "Activity": 43}
    ]}
  ]
}
